Measurements taken from patent US8410064B2, “Classical cannabinoid metabolites and methods of use thereof” (priority 2009, dated 2013).

Key:
recombinant human UGT1A9 = target: T1, recombinant human UGT1A9 (Homo sapiens, UniProt O60656); test: Glucuronidation by recombinant UGT1A9 (activity screen and steady-state kinetics); details: 750 μM substrate, UDP-GlcUA 4 mM, 90 min
T1 sequence (O60656 26-530): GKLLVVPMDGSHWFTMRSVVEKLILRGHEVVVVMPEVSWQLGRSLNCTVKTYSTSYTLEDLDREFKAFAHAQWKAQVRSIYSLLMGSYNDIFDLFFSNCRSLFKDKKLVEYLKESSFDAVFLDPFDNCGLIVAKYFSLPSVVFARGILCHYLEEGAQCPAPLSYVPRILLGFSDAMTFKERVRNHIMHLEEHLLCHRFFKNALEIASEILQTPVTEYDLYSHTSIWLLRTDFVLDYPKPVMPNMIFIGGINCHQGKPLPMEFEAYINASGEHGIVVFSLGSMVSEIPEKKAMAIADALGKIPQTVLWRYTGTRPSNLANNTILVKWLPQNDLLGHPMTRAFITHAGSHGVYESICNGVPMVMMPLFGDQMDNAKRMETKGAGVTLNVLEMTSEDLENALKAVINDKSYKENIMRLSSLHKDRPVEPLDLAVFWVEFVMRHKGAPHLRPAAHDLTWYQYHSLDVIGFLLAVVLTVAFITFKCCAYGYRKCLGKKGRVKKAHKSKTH

human UGTs [1] = test: LC-MS/MS confirmation of glucuronidated products; format: in vitro ADME; details: recombinant protein, 750 μM substrate, UDP-glucuronic acid 4 mM, 180 min, negative ion mode
Method: FIG. 3 depicts a series of graphs illustrating RP-HPLC chromatographs of glucuronidated-product ion experiments. Tracings represent organic-soluble metabolites generated during incubation of recombinant protein with UDP-glucuronic acid (4 mM) and 750 μM of each substrate (A) Δ^9-THC, (B) CBN, (C) 11-OH-THC, (D) CBD, and (E) COOH-THC. Each substrate was incubated individually for 180 min. Control reactions omitted the respective substrate. MS/MS data were obtained in negative ion mode, as described in the Examples.
Liquid chromatography-tandem mass spectrometry (LC-MS/MS) analyses for product confirmation were performed using an Agilent 1100 HPLC system (Santa Clara. Calif.) which was interfaced with an API 4000 triple quadrupole (MS/MS) mass spectrometer (Applied Biosystems. Foster City. Calif.). Instrument operation and data acquisition was controlled through the Analyst software package (Version 1.4.2, Applied Biosystems). The HPLC system consisted of an autosampler, a binary pump, and a column oven. […]
Trace amounts of glucuronidated product was detected for all the substrates, but in some cases, where kinetic information could not be obtained, the physiological significance remains to be determined. […] In particular, the presence of bis- and/or diglucuronidated products was not detected.

human UGTs [2] = test: Glucuronidation activity across the tested human recombinant UGTs; details: 12 human recombinant UGTs; 750 μM substrate, UDP-GlcUA 4 mM, 90 min
recombinant human UGT2B7 = target: T2, recombinant human UGT2B7 (Homo sapiens, UniProt P16662); test: Glucuronidation by recombinant UGT2B7 (activity screen); details: 750 μM substrate, UDP-GlcUA 4 mM, 90 min
T2 sequence (P16662 24-529): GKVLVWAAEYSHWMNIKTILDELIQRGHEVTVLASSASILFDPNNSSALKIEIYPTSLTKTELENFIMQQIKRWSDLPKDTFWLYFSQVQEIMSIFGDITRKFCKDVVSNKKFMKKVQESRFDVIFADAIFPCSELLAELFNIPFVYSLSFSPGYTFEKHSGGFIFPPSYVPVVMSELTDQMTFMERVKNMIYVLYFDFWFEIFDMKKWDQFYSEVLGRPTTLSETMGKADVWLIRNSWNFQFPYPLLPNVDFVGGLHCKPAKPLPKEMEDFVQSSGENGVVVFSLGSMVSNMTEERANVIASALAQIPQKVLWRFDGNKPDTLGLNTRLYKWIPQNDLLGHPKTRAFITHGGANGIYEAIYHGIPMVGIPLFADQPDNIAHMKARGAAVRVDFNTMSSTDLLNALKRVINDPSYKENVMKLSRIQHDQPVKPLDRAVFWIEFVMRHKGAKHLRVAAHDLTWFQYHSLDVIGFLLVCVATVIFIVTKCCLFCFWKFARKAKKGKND

[3] = target: T3, recombinant human UGT2B17 (Homo sapiens, UniProt O75795); test: Glucuronidation by recombinant UGT2B17 (activity screen); details: 750 μM substrate, UDP-GlcUA 4 mM, 90 min
T3 sequence (O75795 24-530): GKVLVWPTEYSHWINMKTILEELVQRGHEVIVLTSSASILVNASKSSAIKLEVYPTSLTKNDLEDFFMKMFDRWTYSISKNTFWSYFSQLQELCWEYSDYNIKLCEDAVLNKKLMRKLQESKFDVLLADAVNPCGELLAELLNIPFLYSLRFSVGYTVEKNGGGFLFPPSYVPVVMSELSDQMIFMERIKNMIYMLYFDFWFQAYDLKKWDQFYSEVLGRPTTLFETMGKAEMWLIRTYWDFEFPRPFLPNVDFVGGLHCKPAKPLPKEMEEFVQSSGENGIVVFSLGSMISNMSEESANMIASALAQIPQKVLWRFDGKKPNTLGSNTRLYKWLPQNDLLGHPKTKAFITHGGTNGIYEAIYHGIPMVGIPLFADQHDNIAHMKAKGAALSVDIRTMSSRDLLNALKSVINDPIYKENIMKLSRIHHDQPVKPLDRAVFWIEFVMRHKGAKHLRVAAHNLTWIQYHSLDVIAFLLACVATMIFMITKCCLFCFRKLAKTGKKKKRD

human liver microsomes = test: Glucuronidation by human liver microsomes (activity screen); details: human liver microsomes (HLM); 750 μM substrate, UDP-GlcUA 4 mM, 90 min

| Compound | glucuronidation activity (initial screen) (recombinant human UGT1A9) | glucuronidated product detected by LC-MS/MS (human UGTs [1]) | glucuronidation activity (initial screen), overall (human UGTs [2]) | glucuronidation activity (initial screen) (recombinant human UGT2B7) | glucuronidation activity (initial screen) [3] | glucuronidation activity (initial screen) (human liver microsomes) |
| --- | --- | --- | --- | --- | --- | --- |
| C=C(C)[C@@H]1CCC(C)=C[C@H]1c1c(O)cc(CCCCC)cc1O [CBD, cannabidiol] | minimal amount of a glucuronidated CBD product | confirming the glucuronide production | limited | minimal amount of a glucuronidated CBD product | minimal amount of a glucuronidated CBD product | minimal amount of a glucuronidated CBD product |
| Δ^9-Tetrahydrocannabinol [(−)-Δ^9-THC] |  | confirming the glucuronide production |  |  |  |  |
